Data set [1] concerns the target DYRK1A (HT-497, 6×His tagged rat truncated DYRK1A isoform X1 residues 1-497) (Rattus norvegicus (Rat), UniProt Q63470). Put plainly: DYRK1A ELISA assay (HT-PRD phosphorylation). Type of data set: biochemical. To be noted: 100 µM ATP, 5 ng HT-497, 30 min at 30° C. As to the method:
Compounds of Table 1, above, were examined in vitro for activity against DYRK1A, DYRK1B, DYRK2 via an ELISA assay.
(§1) DYRK1A assay. […] After blocking, wells were washed extensively with dilution buffer before subjecting to phosphorylation. […] At the end point, wells were washed with ˜350 μl dilution buffer three times to terminate the reaction. […] Each point was run in quadruplicate with DMSO present in all assays at 0.2% final concentration. […] HT-PRD phosphorylation was subsequently determined by the sandwich antibody staining protocol, first with 100 μl mouse mAb 3D3 specific for detecting DYRK1A-phosphorylated PRD (60 min at room temperature) then with 100 μl alkaline phosphatase (AP)-linked anti-mouse secondary antibody (60 min at room temperature), followed by colorimetric reaction with 100 μl PNPP solution (PNPP substrate tablet, Thermo Fisher). […] The readings were then recorded for subsequent IC50 calculation. The DYRK1A assay protocol can also support DYRK1B and DYRK2 phosphorylation reactions in the enzyme concentration-dependent manner; therefore, the method was adapted for measuring the activity of candidate compounds against DYRK1B and DYRK2. For DYRK2, the reactions were performed as described above with 6 ng HT-DYRK2 (6×His tagged full-length human DYRK2 isoform 1). For DYRK1B, the assays were also similarly conducted but with 70 ng GST-DYRK1B (glutathione S-transferase tagged full length human DYRK1B isoform p65) and an extended kinase reaction time of 60 min.
Dilution factors for both mAb 3D3 and secondary antibody were pre-determined for each batch of antibody to ensure that neither antibody was limiting in the assay.
(§2) Data transformation, calculation, plotting, curve fitting, and IC 50 calculation were performed in KaleidaGraph (http://www.synergy.com/wordpress_650164087; Mac version 4.1). Data was corrected for background (readings from wells with only PNPP) before subsequent manipulations. […] The resulting residual activity was then plotted against its corresponding inhibitor concentrations in semi-log graph and the plot was fit to the sigmoidal equation, y=a+(b−a)/(1+(x/c)^d), for IC50 calculation.
In general terms: An ELISA detects its analyte on a solid surface through an enzyme-linked reagent.

Data set [2] deals with DYRK1B (GST tagged full length human DYRK1B isoform p65) (Homo sapiens (Human), UniProt Q9Y463). Put plainly: DYRK1B ELISA assay. Type of data set: biochemical. To be noted: 70 ng GST-DYRK1B, kinase reaction time 60 min. As to the method:
as §1, §2
Compounds of Table 1, above, were examined in vitro for activity against DYRK1B, via an ELISA assay.

Data set [3] relates to MOG35-55-induced chronic progressive Experimental Autoimmune Encephalomyelitis (EAE). Put plainly: MOG35-55-induced murine model of chronic progressive EAE. Type of data set: in vivo, mice. To be noted: for activity in the EAE model (reference compounds): reference compound. The source says:
Compound 40 of Table 1 was examined for application in neurodegenerative disorders using a MOG35-55-induced murine model of chronic progressive Experimental Autoimmune Encephalomyelitis (EAE), an inflammation model predictive for multiple sclerosis (MS).
Without being bound by theory, the present inventors note that compound 40 could have a peripheral immunomodulation effect and an overall neuroprotective effect, which could have advantageous implications for the treatment of neurodegenerative disorders like Alzheimer's disease and Multiple Sclerosis.

For another data set, the target named is COX1 (Homo sapiens (Human), UniProt P23219). Put plainly: Eurofins safetyscreen87 panel. Type of data set: biochemical.
The target of the next data set is COX2 (Homo sapiens (Human), UniProt P35354). Put plainly: Eurofins safetyscreen87 panel. Type of data set: biochemical.
A further data set has as its target PDE3A (Homo sapiens (Human), UniProt Q14432). Briefly: Eurofins safetyscreen87 panel. Type of data set: biochemical.
The next data set addresses Potassium channel hERG (Homo sapiens (Human), UniProt Q12809). Briefly: Eurofins safetyscreen87 panel. Type of data set: binding. Conditions: c=10 μM.
The next data set deals with 87 different targets. Put plainly: Eurofins safetyscreen87 panel (whole panel).
Data set [4] deals with 12 transporter proteins including BCRP and PgP. Briefly: Transporter substrate test (Eurofins panels). Type of data set: in vitro ADME.
The subject of another data set is 8 major CYP enzymes. Put plainly: CYP inhibition in human liver microsomes. Type of data set: in vitro ADME. Conditions: c=10 μM. On the procedure: Compound 68 was also tested for its inhibitor activity against the 8 major CYP enzymes in human liver microsomes.
A general note: Liver microsomes are a subcellular fraction often used to study metabolism.

The test system of data set [5] is Salmonella typhimurium (TA98, TA100, TA97a, and TA1535). Briefly: mini-Ames assay. Conditions: 5 concentrations up to 100 μM, absence or presence of rat liver S9. As to the method:
The compound dissolved in DMSO was evaluated at 5 concentrations up to […] in the absence or presence of metabolic activation (rat liver S9).
Background: In the Ames test, an excess of revertant colonies over the control signals mutagenicity.

In data set [6] the test system is lipopolysaccharide (LPS)-induced TNF-α model. Put plainly: Lipopolysaccharide (LPS)-induced TNF-α model. Type of data set: in vivo, C57BL/6 mice. Conditions: intranasally 3, 10, 30 mg/kg and orally 30 mg/kg, 5 days. On the procedure:
12-week-old male C57BL/6 mice were used.
On day 5, one hour after LPS treatment, all animals were euthanized via CO2. The plasma, hippocampus and cortex were collected and immediately stored at liquid nitrogen and transferred to −80° C. Tissues were used for ELISA and Western Blot analysis to determine levels of TNF-α and pTau.

For data set [7] the following is noted: mouse, in vivo.
The conditions of data set [8]: male, C57BL/6, mouse, in vivo.
A short description of data set [9]: in vivo. To be noted: male, C57BL/6, mouse.
Data set [10] in a line: in vivo. To be noted: male, C57BL/6, mouse. This is another data set of the same source.
A further data set has as its target DYRK2 (Homo sapiens (Human), UniProt Q92630). Conditions: literature value; cited from earlier work.
The mark [11] stands for this setting: inhaled or intranasal, 30 mg/kg.
The mark [12] stands for this setting: inhaled or intranasal, 10 mg/kg.
[13] abbreviates: twice daily intranasal administration, 15 mg/kg.

These results are taken from patent publication US20240336588A1, “COMPOSITIONS AND METHODS FOR ANTIOXIDANT AND ANTI-INFLAMMATORY THERAPEUTICS” (AVANTI BIOSCIENCES INC., priority 2021, published 2024).

Where two headings read alike, the source gives them in different places.

DYRK1B (GST tagged full length human DYRK1B isoform p65), sequence (Q9Y463 other isoform, or with tags, fused parts or gaps): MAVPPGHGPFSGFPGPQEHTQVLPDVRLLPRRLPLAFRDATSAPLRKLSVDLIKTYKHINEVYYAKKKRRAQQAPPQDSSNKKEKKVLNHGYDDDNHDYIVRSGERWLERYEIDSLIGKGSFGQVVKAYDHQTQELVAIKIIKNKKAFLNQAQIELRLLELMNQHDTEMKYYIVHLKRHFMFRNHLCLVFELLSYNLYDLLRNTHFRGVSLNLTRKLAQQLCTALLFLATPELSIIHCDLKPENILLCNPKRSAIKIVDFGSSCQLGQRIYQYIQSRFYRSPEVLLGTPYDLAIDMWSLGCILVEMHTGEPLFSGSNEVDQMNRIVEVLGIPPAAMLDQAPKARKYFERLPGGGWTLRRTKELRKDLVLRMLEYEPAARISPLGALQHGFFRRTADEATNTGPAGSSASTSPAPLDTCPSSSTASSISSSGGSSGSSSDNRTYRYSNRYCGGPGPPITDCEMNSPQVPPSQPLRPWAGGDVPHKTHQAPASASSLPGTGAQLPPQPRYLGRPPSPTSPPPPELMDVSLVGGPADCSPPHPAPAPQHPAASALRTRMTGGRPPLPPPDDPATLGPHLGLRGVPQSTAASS
COX1, sequence (P23219 24-599): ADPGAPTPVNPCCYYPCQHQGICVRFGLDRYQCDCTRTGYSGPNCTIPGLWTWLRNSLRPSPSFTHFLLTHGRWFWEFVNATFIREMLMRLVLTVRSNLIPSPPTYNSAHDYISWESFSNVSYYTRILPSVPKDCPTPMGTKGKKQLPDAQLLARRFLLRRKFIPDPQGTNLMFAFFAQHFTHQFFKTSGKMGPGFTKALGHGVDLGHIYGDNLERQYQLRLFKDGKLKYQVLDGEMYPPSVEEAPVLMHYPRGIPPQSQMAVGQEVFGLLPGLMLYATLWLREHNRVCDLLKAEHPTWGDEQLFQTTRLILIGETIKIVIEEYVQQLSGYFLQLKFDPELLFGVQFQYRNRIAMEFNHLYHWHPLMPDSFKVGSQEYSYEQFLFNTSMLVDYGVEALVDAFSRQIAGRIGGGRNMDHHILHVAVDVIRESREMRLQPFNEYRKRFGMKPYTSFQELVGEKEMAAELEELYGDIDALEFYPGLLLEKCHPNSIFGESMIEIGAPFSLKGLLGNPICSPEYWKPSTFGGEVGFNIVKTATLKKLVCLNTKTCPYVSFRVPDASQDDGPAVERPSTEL
COX2, sequence (P35354 18-604): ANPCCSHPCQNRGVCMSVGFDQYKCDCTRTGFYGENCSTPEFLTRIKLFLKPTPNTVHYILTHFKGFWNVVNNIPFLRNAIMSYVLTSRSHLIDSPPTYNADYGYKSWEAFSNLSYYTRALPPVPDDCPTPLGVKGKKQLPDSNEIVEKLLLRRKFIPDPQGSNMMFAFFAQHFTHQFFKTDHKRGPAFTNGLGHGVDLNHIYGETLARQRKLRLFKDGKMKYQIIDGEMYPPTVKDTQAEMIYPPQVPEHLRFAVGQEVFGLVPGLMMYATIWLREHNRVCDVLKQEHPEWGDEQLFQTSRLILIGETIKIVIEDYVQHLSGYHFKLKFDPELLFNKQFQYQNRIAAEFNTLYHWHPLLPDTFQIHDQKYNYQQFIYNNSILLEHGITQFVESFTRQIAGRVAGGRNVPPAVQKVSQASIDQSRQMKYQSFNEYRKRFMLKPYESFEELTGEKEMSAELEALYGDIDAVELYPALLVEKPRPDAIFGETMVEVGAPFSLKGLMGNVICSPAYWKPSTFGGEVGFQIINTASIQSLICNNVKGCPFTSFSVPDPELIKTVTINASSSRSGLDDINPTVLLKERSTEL
PDE3A, sequence (Q14432 whole entry): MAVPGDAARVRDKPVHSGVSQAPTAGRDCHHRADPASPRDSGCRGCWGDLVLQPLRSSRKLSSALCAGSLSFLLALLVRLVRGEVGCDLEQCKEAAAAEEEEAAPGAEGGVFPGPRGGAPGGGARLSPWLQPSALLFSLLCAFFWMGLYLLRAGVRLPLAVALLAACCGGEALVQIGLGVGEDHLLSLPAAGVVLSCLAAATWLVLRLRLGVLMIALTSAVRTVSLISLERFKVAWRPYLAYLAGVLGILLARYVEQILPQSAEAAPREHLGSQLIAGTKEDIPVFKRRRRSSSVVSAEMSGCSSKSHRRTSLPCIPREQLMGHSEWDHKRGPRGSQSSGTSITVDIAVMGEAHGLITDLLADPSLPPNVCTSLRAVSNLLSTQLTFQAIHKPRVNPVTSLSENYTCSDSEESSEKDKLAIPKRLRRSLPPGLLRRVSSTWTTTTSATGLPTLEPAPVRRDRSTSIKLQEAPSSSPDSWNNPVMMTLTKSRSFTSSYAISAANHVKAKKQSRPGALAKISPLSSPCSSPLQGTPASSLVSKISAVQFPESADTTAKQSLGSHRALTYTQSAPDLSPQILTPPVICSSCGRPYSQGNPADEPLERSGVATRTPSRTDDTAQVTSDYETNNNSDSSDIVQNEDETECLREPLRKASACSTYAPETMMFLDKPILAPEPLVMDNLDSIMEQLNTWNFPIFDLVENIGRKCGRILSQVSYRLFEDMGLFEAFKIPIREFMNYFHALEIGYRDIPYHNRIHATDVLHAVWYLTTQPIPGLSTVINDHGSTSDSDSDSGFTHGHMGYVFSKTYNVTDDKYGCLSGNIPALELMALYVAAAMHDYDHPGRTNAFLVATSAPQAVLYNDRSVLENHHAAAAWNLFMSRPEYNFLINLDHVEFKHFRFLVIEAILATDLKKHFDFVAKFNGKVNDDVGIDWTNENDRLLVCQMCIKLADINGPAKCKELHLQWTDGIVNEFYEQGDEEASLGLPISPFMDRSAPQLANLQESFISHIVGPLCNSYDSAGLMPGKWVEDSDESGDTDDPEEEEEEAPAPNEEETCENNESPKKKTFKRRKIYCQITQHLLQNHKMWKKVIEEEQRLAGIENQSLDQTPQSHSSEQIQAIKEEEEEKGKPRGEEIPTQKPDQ
DYRK2, sequence (Q92630 whole entry, species assumed): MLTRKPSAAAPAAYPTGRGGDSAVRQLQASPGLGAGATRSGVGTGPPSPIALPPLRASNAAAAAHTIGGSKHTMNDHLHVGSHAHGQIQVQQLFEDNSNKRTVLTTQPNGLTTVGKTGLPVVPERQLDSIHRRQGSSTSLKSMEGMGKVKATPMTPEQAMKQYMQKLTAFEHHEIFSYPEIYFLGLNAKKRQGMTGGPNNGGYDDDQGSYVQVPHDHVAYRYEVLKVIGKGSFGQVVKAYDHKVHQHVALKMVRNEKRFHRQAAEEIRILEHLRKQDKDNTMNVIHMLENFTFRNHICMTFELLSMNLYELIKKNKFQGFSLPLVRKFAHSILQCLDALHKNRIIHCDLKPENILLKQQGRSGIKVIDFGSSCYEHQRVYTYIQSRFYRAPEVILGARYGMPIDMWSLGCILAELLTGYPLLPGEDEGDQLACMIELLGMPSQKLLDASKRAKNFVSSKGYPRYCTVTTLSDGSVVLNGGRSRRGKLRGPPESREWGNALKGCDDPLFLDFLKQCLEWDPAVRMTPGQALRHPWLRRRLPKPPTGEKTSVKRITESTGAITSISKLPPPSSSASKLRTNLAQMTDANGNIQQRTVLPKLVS
Potassium channel hERG, sequence (Q12809 whole entry): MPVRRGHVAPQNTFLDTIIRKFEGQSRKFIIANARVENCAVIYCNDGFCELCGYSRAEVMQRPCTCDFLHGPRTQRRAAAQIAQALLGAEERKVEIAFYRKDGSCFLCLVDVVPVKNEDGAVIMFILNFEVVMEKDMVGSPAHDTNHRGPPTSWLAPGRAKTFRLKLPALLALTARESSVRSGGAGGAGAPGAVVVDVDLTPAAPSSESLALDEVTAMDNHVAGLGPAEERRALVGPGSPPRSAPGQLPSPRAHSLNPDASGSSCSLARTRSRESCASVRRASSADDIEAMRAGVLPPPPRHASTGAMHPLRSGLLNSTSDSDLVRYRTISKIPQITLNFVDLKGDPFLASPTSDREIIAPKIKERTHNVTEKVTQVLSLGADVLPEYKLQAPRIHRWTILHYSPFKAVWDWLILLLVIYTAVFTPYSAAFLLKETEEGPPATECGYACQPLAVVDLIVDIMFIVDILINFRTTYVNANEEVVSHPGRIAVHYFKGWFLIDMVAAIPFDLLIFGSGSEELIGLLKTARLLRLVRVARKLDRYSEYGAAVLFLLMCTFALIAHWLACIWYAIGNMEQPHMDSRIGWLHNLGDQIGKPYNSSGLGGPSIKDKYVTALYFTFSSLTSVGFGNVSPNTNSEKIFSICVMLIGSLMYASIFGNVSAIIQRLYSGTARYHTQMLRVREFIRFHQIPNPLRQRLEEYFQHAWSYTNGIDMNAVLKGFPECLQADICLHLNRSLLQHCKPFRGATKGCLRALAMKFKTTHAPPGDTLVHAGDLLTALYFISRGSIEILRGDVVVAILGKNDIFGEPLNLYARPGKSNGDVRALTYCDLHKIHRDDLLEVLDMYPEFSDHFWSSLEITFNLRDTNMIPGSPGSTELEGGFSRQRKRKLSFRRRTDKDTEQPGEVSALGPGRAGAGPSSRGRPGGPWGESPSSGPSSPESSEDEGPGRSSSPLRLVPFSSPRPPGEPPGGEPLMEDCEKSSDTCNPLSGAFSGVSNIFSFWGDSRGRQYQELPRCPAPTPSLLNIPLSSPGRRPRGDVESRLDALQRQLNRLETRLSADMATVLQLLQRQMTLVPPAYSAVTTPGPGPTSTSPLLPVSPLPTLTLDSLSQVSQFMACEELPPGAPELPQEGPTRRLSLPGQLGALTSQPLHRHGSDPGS

As a reminder, the IC50 is the concentration at which inhibition is half-maximal. With `O=C(O[C@@H]1Cc2c(O)cc(O)cc2O[C@H]1c1ccc(O)c(O)c1)c1cc(O)c(O)c(O)c1F` [Compound 55, (2S,3R)-2-(3,4-dihydroxyphenyl)-5,7-dihydroxychroman-3-yl 2-fluoro-3,4,5-trihydroxybenzoate], the IC50 is below 100 nM in data set [1] and above 100 nM in data set [2].

With `O=C(O[C@@H]1Cc2c(O)cc(O)cc2O[C@@H]1c1cc(O)c(O)c(O)c1)c1cc(O)c(O)c(O)c1` [Compound 3, (2R,3R)-5,7-dihydroxy-2-(3,4,5-trihydroxyphenyl)chroman-3-yl 3,4,5-trihydroxybenzoate, reference compound], the “activity in the EAE model (reference compounds)” value in data set [3] (FIG. 1) was “no significant activity”.

One may read the CL/F as the apparent clearance, not corrected for the fraction that reaches the circulation. The Vd/F is the apparent distribution volume after extravascular dosing. For orientation: AUC(0-inf) means the area under the concentration-time curve extrapolated to infinity. For orientation: AUC(0-t) means the area under the concentration-time curve up to a stated or last time point. A word on the Cmax: it is the maximum level reached in the sampled fluid or tissue. For orientation: bioavailability means dose-corrected exposure relative to a reference, in per cent. Low readings indicate little systemic uptake, high ones much systemic uptake. The Vd is a proportionality between amount in the body and measured concentration, not a real space. Higher therefore signals wide distribution into tissue. In general, clearance refers to the rate of elimination divided by the concentration. The low end stands for inefficient removal, the high end for efficient removal. In the case of `COc1cc(C(=O)O[C@@H]2Cc3c(O)cc(O)cc3O[C@H]2c2cc(O)c(O)c(O)c2)c(F)c(O)c1O` [Compound 68, (2S,3R)-5,7-dihydroxy-2-(3,4,5-trihydroxyphenyl)chroman-3-yl 2-fluoro-3,4-dihydroxy-5-methoxybenzoate], the half-inhibitory concentration (IC50) was below 100 nM in data set [1]; below 100 nM in data set [2]; 1200 nM against COX1; 182 nM on COX2; 380 nM against PDE3A. Besides, the “activity against the Potassium channel hERG” value at Potassium channel hERG is “No activity”. Moreover, the “activity against other ion channels” value with 87 different targets (c=10 μM) is given as “No activity”. Further, the “profile over 87 different targets” value with 87 different targets (screened at c=10 µM, significant activity only against COX1, COX2, PDE3A) is given as “very clean profile”. Moreover, in [4], the “substrate of transporter proteins” value is “not a substrate of any of them”. Also, the “inhibition of the CYP enzymes” value in the data set on 8 major CYP enzymes was “no inhibition”. Besides, in [5], the cytotoxicity in bacteria result is given as “No evidence of cytotoxicity”. The mutagenicity entry in data set [5] is “not mutagenic”. The “lipopolysaccharide-induced expression of TNF-alpha” value in data set [6] (hippocampus and plasma, ELISA, FIGS. 3-4) is on record as “inhibit”. Further, the “lipopolysaccharide-induced pTau” value in data set [6] (hippocampus, Western Blot (AT8 antibody), FIG. 5) is on record as “inhibit”. The T1/2 is listed as 1.06 H in [7] (inhaled or intranasal); 1.97 H in data set [7] (setting [11]); 1.04 H in data set [7] (iv, 5 mg/kg); 1.27 H in data set [7] (po, 30 mg/kg). The “time measurable in whole-brain homogenate after dosing” value in data set [8] worked out at 4 h. The apparent clearance CL/F in “in vivo [9]” (30 mg/kg) was 842 mL/min/kg; in “in vivo [9]” (setting [12]) it was 240 mL/min/kg; in the data set “in vivo [9]” (po, 30 mg/kg) it was 100 mL/min/kg. Further, the Vd/F in “in vivo [9]” (30 mg/kg) came to 17.1 L/kg; in the data set “in vivo [9]” (setting [12]), 41.7 L/kg; in “in vivo [9]” (po, 30 mg/kg), 602 L/kg. For the same molecule, the total exposure AUC(0-inf) is 716 ng·h/mL in the data set “in vivo [9]” (setting [12]); 4990 ng·h/mL in “in vivo [9]” (setting [11]); 348 ng·h/mL in “in vivo [9]” (iv, 5 mg/kg); 92 ng·h/mL in “in vivo [9]” (po, 30 mg/kg). Besides, the AUC(0-t) in “in vivo [9]” (setting [12]) stood at 702 ng·h/mL; in the data set “in vivo [9]” (setting [11]), 4950 ng·h/mL; in the data set “in vivo [9]” (iv, 5 mg/kg), 334 ng·h/mL; in “in vivo [9]” (po, 30 mg/kg), 78 ng·h/mL. In addition, the Cmax in the data set “in vivo [9]” (setting [12]) turned out to be 489 ng/mL; in the data set “in vivo [9]” (setting [11]), 3140 ng/mL; in the data set “in vivo [9]” (iv, 5 mg/kg), 257 ng/mL; in “in vivo [9]” (po, 30 mg/kg), 41 ng/mL. In addition, the bioavailability in “in vivo [9]” (setting [12]) was above 100%; in “in vivo [9]” (setting [11]), above 100%; in the data set “in vivo [9]” (po, 30 mg/kg), 4%. The same molecule displayed a Vd in “in vivo [9]” (iv, 5 mg/kg) of 22 L/kg. This molecule gave a clearance in the data set “in vivo [9]” (iv, 5 mg/kg) of 240 mL/min/kg. The same molecule gave a concentration at 1 h in “in vivo [10]” of 120 ng/g.

`O=C(O[C@@H]1Cc2c(O)cc(O)cc2O[C@H]1c1cc(O)c(O)c(O)c1)c1c(F)c(O)c(O)c(O)c1F` [Compound 51, (2S,3R)-5,7-dihydroxy-2-(3,4,5-trihydroxyphenyl)chroman-3-yl 2,6-difluoro-3,4,5-trihydroxybenzoate]: the concentration for half-maximal inhibition (IC50) in [1] and in [2] was below 100 nM in each case.

As for `O=C(O[C@@H]1Cc2c(O)cc(O)cc2O[C@H]1c1cc(O)c(O)c(O)c1)c1cc(O)c(O)c(O)c1F` [Compound 40, (2S,3R)-5,7-dihydroxy-2-(3,4,5-trihydroxyphenyl)chroman-3-yl 2-fluoro-3,4,5-trihydroxybenzoate], the IC50 in data set [1] was below 100 nM. In addition, the IC50 in [2] is below 100 nM. Besides, the “axons and myelin during chronic EAE” value in [3] (Bielschowsky silver staining (neurofilaments), LFB staining (myelin)) is “preserved axons and myelin”. Further, the “spinal cord inflammation, hematoxylin and eosin staining” value in data set [3] (compared to the vehicle control group) is recorded as “significant spinal cord inflammation reductions”. Further, in data set [3] (treated intranasally, compared to the other treatment groups, FIG. 2), the “lesion severity scores, histopathology of spinal cord section” value is reported as “significant (p<0.001) reductions in lesion severity scores”. Further, in [3] (setting [13]), the “reduction of brain IFNγ” value was found to be 90% and the “reduction of brain IL-17” value is 79%. Further, the “effect on disease course (EAE)” value in [3] (twice daily intranasal administration, 15 mg/kg, FIG. 1) is “reversal of the disease”.

Consider `CCCCCCCCc1ccc(CCC(N)(CO)CO)cc1` [FTY720, Fingolimod, reference compound], for which the “activity in the EAE model (reference compounds)” value in data set [3] (FIG. 1) is reported as “reversal of the disease”.

Consider `COc1cc(N2CCN(C)CC2)ccc1Nc1nccc(-c2cn(C)c3cnccc23)n1` [AZ-191], for which the IC50 at DYRK2 is 1890 nM.
